Measurements published in patent US7157449B2, “Medicament for the treatment of diseases caused by parasitic protozoa” (priority 2000, dated 2007).
pIC50: −log10 of the molar value. Entries after “also recorded” stand apart in the source; their conditions may differ.

Assays:
[1] = in vivo; cited from earlier work
T. brucei [2] = assay: Effect of drugs on trypanosome proliferation; type: cell-based; details: for effect on trypanosome proliferation: DON 1, 5 μM, acivicin 1, 5, 25 μM, CPEC 250 μM, azaserine data not shown; for rescue of trypanosomes from the proliferation block asserted by DON: cytidine up to 5 mM or cytosine 1 mM
Method: In A), the trypanosomes were treated with no drug (squares), 1 μM DON (triangles) or 5 μM DON (diamonds). In (B), the trypanosomes were treated with no drug (filled squares), 1 μM acivicin (triangles), 5 μM acivicin (diamonds) or 25 μM acivicin (open squares). The number of trypanosomes was counted at various time-points after the drug exposure had started. It appears that DON and acivicin were both very active.
The trypanosomes were treated with DON for 1 h and then harvested and resuspended in drug-free medium. The number of trypanosomes was counted at various time-points after the release had started (triangles). A control experiment was performed where the trypanosomes were not exposed to DON but otherwise were treated exactly the same way as the drug-treated trypanosomes (squares). Each point is an average of two experiments with the standard deviation indicated by error bars.
(§1) Procyclic insect forms of T. brucei brucei AnTat 1.1 were cultured in SDM-79 medium (Brun, R. and Schoenenberger, M. (1979) Acta Trop. 36, 289–292) supplemented with 10% heat-inactivated fetal bovine serum at 27° C. Culture-adapted bloodstream forms of the T. brucei brucei cell line TC221 (Hirumi, H., Hirumi, K., Doyle, J. J. and Cross, G. A. M. (1980) Parasitology 80, 371–382) were propagated in Hirumi's modified Iscove's medium-9 (Hirumi, H. and Hirumi, K. (1989) J. Parasitology 75, 985–989) supplemented with 5% fetal bovine serum at 37° C. in a humidified atmosphere containing 7% CO2. The cultured parasites were harvested in the late logarithmic growth phase.
(§2) 6-diazo-5-oxo-L-norleucine (DON), acivicin and azaserine were bought from Sigma. They were dissolved in water and stored as 5 mM solutions at −20° C. Cyclopentenyl cytosine was a kind gift from Grant McClarty at the Dept. of Medical Microbiology, University of Manitoba, 730 William Ave, Winnipeg, Manitoba R3E OW3, Canada. It was stored as a 50 mM solution in dimethyl sulfoxide (DMSO) at 4° C. The final concentration of DMSO in the growth media of the trypanosomes never became more than 0.5% and that had no effect on the NTP pools or the proliferation of the parasites.
DON is not stable in the bloodstream and has a half-life of only a few hours in humans (Kovach, J. S., Eagan, R. T., Pawis, G., Rubin, J., Creagan, E. T. and Moertel. C. G. (1981) Cancer Treat. Rep. 65, 1031–1036; Rahman, A., Luc, V., Smith, F. P., Vrown, J., Schein, P. S. and Woolley, P. V. (1981); and Sullivan, M. P., Nelson, J. A., Feldman, S. and Nguyen, B. V. (1988) Cancer Chemother. Pharmac. 21, 78–84). Therefore, it was tested for how long the effect of a short pulse of DON lasts on trypanosome proliferation. In FIG. 5, the trypanosomes have been treated with 5 μM DON for 1 h. After the incubation, the trypanosomes were collected by centrifugation, the pellet was washed with media not containing DON and resuspended in the same media and the trypanosomes were put back into the incubator. The amount of trypanosomes was continuously recorded during the incubation. Control trypanosomes were treated the same way except that the one-hour incubation was without DON.

mouse BALB/c fibroblasts = assay: Proliferation of BALB/c fibroblasts with DON with or without hypoxanthine; type: cell-based
Method: The fibroblasts were seeded at a density so low that they could not get confluent within three days. […] At this point the amount of cells was indirectly counted by a method described in the section “Material and methods” below.
Mouse Balb/c fibroblasts were cultivated as monolayers in Dulbecco's Modified Eagles Medium (Sigma) supplemented with L-glutamine (0.584 g/l) and 10% heat-inactivated horse serum at 37° C. in a humidified atmosphere containing 7% CO2. The amount of fibroblasts on each plate was determined by a method were the cell-containing plates were washed with PBS pH 7.5, the cells disintegrated by a 10 min. incubation with 0.2 M NaOH at 50° C. and then the OD260-310 was measured (Suttle, D. P. and Stark, G. R. (1979) J. Biol. Chem. 254, 4602–4607). The cells were collected before confluence.
The effect of DON on trypanosomes and mammalian cells was compared as follows. […] Thus, it needed to be investigated whether or not the anti-proliferation effect on mammalian cells could be abolished, while still keeping the trypanocidal activity. In mammalian cells, DON is a powerful inhibitor of de novo purine biosynthesis. In FIG. 6, two experiments are included wherein the block on de novo purine biosynthesis have been by-passed by 10 and 160 μM hypoxanthine, respectively. Hypoxanthine is a naturally occurring purine base in the bloodstream of mammals.

T. brucei [3] = assay: NTP (CTP) pools in trypanosomes after treatment with CTP synthetase inhibitors; type: cell-based; details: for size of the CTP pool after addition of cytidine or cytosine: up to 15 mM cytidine or 1 mM cytosine, harvested one hour later; for effect on the CTP pool: 1 h incubation, 25 and 100 μM DON, 100 μM acivicin, 25 μM CPEC
Method: Samples without drug (control), with 25 and 100 μM DON (DON25 and DON100, respectively), with 100 μM acivicin (Aci100) and with 25 μM CPEC (CPEC25) are shown. The unit of the ordinata is the same as in FIG. 1. The control is an average of two experiments while the others are single measurements.
as §1
1–3×10^8 trypanosomes were collected and subsequently disintegrated by 500 μl ice-cold 0,6 M trichloroacetic acid supplemented with 15 mM MgCl2. The trichloroacetic acid was removed by two extractions with 720 μl 1,1,2-trichlorotrifluoroethan (78%)/trioctylamine (22%) and the aqueous phase was saved. ⅕ of the sample was evaporated to dryness in a Speedvac (Savant), loaded onto a 4.6×125 mm Partisphere SAX-column and run by HPLC in 0,5 M ammonium phosphate pH 3,4 containing 2,5% acetonitrile at 1.5 ml/min. The procedure is further explained in previous work by the present inventors, see Hofer, A., Ekanem, J. T. and Thelander, L. (1998) J. Biol. Chem. 273, 34098–34104. A connection of the HPLC to a Flow Scintillation Analyzer (Radiomatic 150 TR, Packard) made it possible to check the radioactivity in the chromatographic peaks. For radioactivity measurements, the whole sample was usually loaded onto the column. The nucleotides were quantified by measuring the peak heights and comparing them to a standard curve.
as §2
The absolute dependence on de novo synthesis for CTP production might be exploited for chemotherapy purposes since the host can be rescued by cytidine. There are two major classes of compounds that inhibit CTP synthetase, nucleoside analogues and glutamine analogues. One nucleoside analogue, cyclopentenyl cytosine (CPEC), and two glutamine analogues, 6-diazo-5-oxo-L-norleucin (DON) and acivicin, were tested and it was observed how the CTP pool changed during the one-hour incubation period (FIG. 3). […] Next, the effect of the drugs on trypanosome growth was investigated. […] As expected. CPEC (250 μM) had no effect in this experiment either (data not shown).

[4] = human bloodstream; cited from earlier work
Plasmodium falciparum = assay: IC50 against parasite (Swiss Tropical Institute standard method); type: cell-based
Text: (§3) In order to determine in what range DON is effective against Plasmodium falciparum, the cause of malaria, Swiss Tropical Institute (Socinstrasse 57, P.O. Box, CH, 4002 Basel, Switzerland) performed the present experiment according to their standard methods available as a commercial service provided under secrecy (for an exact disclosure of the method, reference is made to Swiss Tropical Institute). Further, the present experiment enables a comparison between the effect of DON on both Trypanosoma brucei rhodiense and Plasmodium falciparum.

[5] = test system: Trypanosoma brucei rhodiense; assay: as above; type: cell-based
Text: as §3

O=c1[nH]cnc2nc[nH]c12 [Hypoxanthine, hypoxanthine]
crossing of the blood-brain barrier [1]: known to cross the blood-brain barrier

[N-]=[N+]=CC(=O)OC[C@H](N)C(=O)O [Azaserine, azaserine]
effect on trypanosome proliferation (T. brucei [2]): had no effect

Nc1ccn([C@@H]2O[C@H](CO)[C@@H](O)[C@H]2O)c(=O)n1 [Cytidine, cytidine]
effect on the DON concentration needed for a proliferation block (mouse BALB/c fibroblasts; cytidine added instead of hypoxanthine): had no such effect | rescue of trypanosomes from the proliferation block asserted by DON (T. brucei [2]): could not rescue | size of the CTP pool after addition of cytidine or cytosine (T. brucei [3]): no change

Nc1cc[nH]c(=O)n1 [cytosine]
rescue of trypanosomes from the proliferation block asserted by DON (T. brucei [2]): could not rescue | size of the CTP pool after addition of cytidine or cytosine (T. brucei [3]): no change

N[C@H](C(=O)O)[C@@H]1CC(Cl)=NO1 [acivicin]
effect on trypanosome proliferation (T. brucei [2]): very active | GTP pool reduced by (T. brucei [3]; 1 h incubation with acivicin, not shown in the figure): 50% | effect on the CTP pool (T. brucei [3]): lowered the CTP pool

[N-]=[N+]=CC(=O)CC[C@H](N)C(=O)O [DON, 6-diazo-5-oxo-L-norleucine]
half-life [4]: a few hours | pIC50 (Plasmodium falciparum; KI isolate): 6.28 | pIC50 (Plasmodium falciparum; NF54 isolate): 6.44 | pIC50 [5]: 6.37 | DON concentration needed to inhibit proliferation relative to without hypoxanthine (mouse BALB/c fibroblasts; in the presence of 160 μM hypoxanthine): around 20 times | antiproliferative effect of DON (mouse BALB/c fibroblasts; with 10 μM hypoxanthine (consumed during the experiment)): still high | DON concentration needed for a proliferation block (mouse BALB/c fibroblasts; with addition of hypoxanthine): more than 20 μM | DON concentration for maximal inhibition / total block of proliferation (mouse BALB/c fibroblasts; without purines (hypoxanthine) in the culture medium, 72 h): 1 to 2 µM | effect on trypanosome proliferation (T. brucei [2]): very active | concentration that completely blocked trypanosome proliferation (T. brucei [2]; cultured trypanosomes, 160 μM hypoxanthine in medium): 1 µM | effect on the CTP pool (T. brucei [3]): selectively lowered the CTP level; also recorded: lowered the CTP pool | effect on the UTP, ATP or GTP (purine NTP) levels (T. brucei [3]; DON-treated T. brucei): without affecting the UTP, ATP or GTP levels; also recorded: did not alter the purine NTP pools
